Literature values as cited in US6514544B2, “Beverage for increasing the body's capacity to break down alcohol and method thereof” (JHS-Privatstiftung, priority 1998, dated 2003).

share of the reabsorbed alcohol excreted via the kidneys (approximately): 1-2%
share of the reabsorbed alcohol excreted via the lungs (approximately): 2-3%
amount directly glucuronated (slight amounts): 0.5%
Compound: CCO [alcohol, ethanol]
